Data set [1] deals with T1, chimeric protein PPARγ-Gal4 (Homo sapiens, UniProt P37231).
T1 construct: expressed in transfected cells; host or cells: CV-1 cells (monkey kidney cells)
T1 sequence (P37231 238-503 limits assumed): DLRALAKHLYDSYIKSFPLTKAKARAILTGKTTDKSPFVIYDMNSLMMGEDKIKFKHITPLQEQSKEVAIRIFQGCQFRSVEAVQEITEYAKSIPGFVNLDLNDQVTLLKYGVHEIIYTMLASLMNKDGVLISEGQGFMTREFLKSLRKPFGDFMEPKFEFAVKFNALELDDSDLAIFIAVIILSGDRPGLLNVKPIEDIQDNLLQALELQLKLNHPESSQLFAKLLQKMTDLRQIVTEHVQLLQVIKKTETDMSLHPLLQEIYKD
As to the kind of experiment: PPARγ-Gal4 transactivation test (luciferase reporter) in cotransfected CV-1 cells. The data set is classed as cell-based. The procedure: The measurement of the PPAR activation was performed according to a technique described by Lehmann et al. (J. Biol. Chem., 270, (1995), 12953-12956). CV-1 cells (monkey kidney cells) are cotransfected with an expression vector for the chimeric protein PPARγ-Gal4 and with a “reporter” plasmid that allows expression of the luciferase gene placed under the control of a promoter comprising Gal4 response elements. The cells are seeded in 96-well microplates and cotransfected using a commercial reagent with the reporter plasmid (pG5-tk-pGL3) and the expression vector for the chimeric protein (PPARγ-Gal4). After incubation for 4 hours, whole culture medium (comprising 10% foetal calf serum) is added to the wells. After 24 hours, the medium is removed and replaced with whole medium comprising the test products. The products are left in contact with the cells for 18 hours. The cells are then lysed and the luciferase activity is measured using a luminometer. A PPARγ activation factor can then be calculated by means of the activation of the expression of the reporter gene induced by the product (relative to the control cells that have received no product). In the absence of the PPARγ ligand binding domain (vector expressing Gal4 alone), the luciferase activity measured in the presence of an agonist is zero. The transactivation test using the expression of a chimeric protein Gal-4-PPARγ makes it possible to determine also whether an agonist functions as a “full” agonist or as a “partial” agonist in this system. An agonist is “partial” in this system if it induces a weaker response, i.e. it has lower efficacy, than rosiglitazone, which is a “full” agonist. In concrete terms, in our system, the transactivation obtained at the plateau with a partial agonist will be between 20% and 50% of the maximum response (efficacy) at the plateau of rosiglitazone.

The text below walks through data of patent US8653134B2, “Hydroxyphenol derivatives, processes for the preparation thereof, pharmaceutical compositions them, and therapeutic uses thereof” (Merck Patent GmbH, priority 2005, dated 2014).

Structures are written as SMILES.

For the compound `CCCCCOc1cc2c(cc1OCc1cccc(C(=O)O)c1)C(=O)CC2` [Example 4, 3-(3-Oxo-6-pentyloxyindan-5-yloxymethyl)benzoic Acid], the melting point – broadly, the temperature, or range, at which the solid turns liquid – came to 190 °C. In addition, in data set [1] (CV-1 cells, Gal-4-PPARγ transactivation), the “Concentration to reach the maximum stimulation of the PPARγ chimeric protein” value stood at 12.5 µM. In addition, in data set [1] (transactivation at the plateau as % of the maximum response (efficacy) of rosiglitazone, CV-1 cells, read-out: Maximum stimulation of the PPARγ chimeric protein obtained with rosiglitazone), the Emax turned out to be 28%.

For `CCCCCCOc1cc2c(cc1OCCCC(=O)O)C(=O)CC2` [Example 7, 4-(6-hexyloxy-3-oxoindan-5-yloxy)butanoic acid], in data set [1] (concentration 10 μM, CV-1 cells (monkey kidney cells), 18 hours contact, relative to control cells without agonist (=1)), the “Activation factor of the chimeric protein PPARγ-Gal4” value was 9.10.
